Measured values taken from PMC12704579, “New Anticancer 4‐Aryldihydropyrimidinone‐5‐Carboxylates Targeting Hsp90” (Chemical Biology & Drug Design, 2025).
“And” between values parts separate entries of the source, which are not always exact repeats. Equal values may be shown once.

What was measured:
[1] = CellTiter-Blue cell viability assay, HEK-293 (24 h); type: cell-based, human; conditions: human, HEK-293 cells, CellTiter-Blue, 24 h incubation, 10 μM test compound, standardised to DMSO control
Procedure: (§1) Human Embryonic Kidney cells (HEK‐293) and human breast cancer cells (MCF‐7, MDA‐MB‐231 and HCC1954) were cultured in complete growth media: […] 1X (Gibco); 10% v/v Fetal Bovine Serum (FBS, Sigma Dorset UK) and L‐glutamine (2 mM, Invitrogen). SW‐480‐WT cells were maintained in selective media made up of Dulbecco's Modified Eagle Medium (Gibco), enriched with […] of Geneticin Selective Antibiotic (G418 Sulfate; Gibco, Thermo Fisher). Cells were incubated at a 5% CO2 atmosphere at 37°C.
(§2) Cells were cultured in 96‐well plates in 90 μL at a seeding density of 1 × 10^6 cells per well. Compound samples were prepared at different concentrations (1 mM, 100 μM, 10 μM, 1 μM, 100 nM, 10 nM) and 10 μL of each concentration was seeded in each well. Two different negative controls were used: DMSO 0.01% and 0.001%. Paclitaxel (30% w/v) was used as a positive control. Cells were treated for 24 h after which 20 μL of CellTitre‐Blue reagent (Promega, Southampton, UK) was added and incubated for 2 h at 37°C in 5% CO2. Fluorescence was measured at 560/590 nm on a Fluorostar Optima plate reader (BMG Labtech, Bucks, UK). Assay end points were normalised to 0% (DMSO only) and fitted to a semilog plot using at least n = 3 technical replicates (n = 6 for DMSO control and paclitaxel control) and N = 3 independent replicates. The curve fit was performed using the GraphPad Prism software and the standard Hill equation.
(§3) In view of previous reports on Hsp90 inhibitors and their effects on cancer cell viability (Eachkoti et al. [2014]) and clonogenicity (Kinzel et al. [2016]), new compounds were tested for inhibition of cell viability within both non‐tumourigenic (HEK‐293) and breast cancer cell lines (MDA‐MB‐231) at a fixed concentration of 10 μM. The well‐established CellTiter‐Blue endpoint assay was used to assess cell viability. New compounds were also assessed in a colony forming assay (MCF‐7 breast cancer cell line), used as an efficacy screening to provide an indication of the inhibition of clonogenicity for these small molecules (Table 1).

HEK-293 cells = assay: as above; type: cell-based, human; conditions: Homo sapiens, HEK293; 24 h incubation time
Procedure: as §1, §2, §3

MDA-MB-231 cells = assay: CellTiter-Blue cell viability assay, MDA-MB-231 (24 h); type: cell-based, human; conditions: for GI50: 24 h incubation time; for viability at 10 µM / % Viability (MDA-MB-231, 10 μM): CellTiter-Blue, 24 h incubation, 10 μM test compound, standardised to DMSO control
Procedure: as §1, §2, §3

MCF-7 cells = assay: Colony forming assay, MCF-7; type: cell-based, human; conditions: for IC50: Homo sapiens, MCF7, 168 h, 7 days; for % Clonogenicity (MCF-7, 10 μM): percentage of survival colonies, 7-day incubation, standardised to DMSO control
Procedure: as §1
Cells were seeded in a 12‐well plate at 400 cells per well. One hour after the seeding of the cells, compounds (1 mM, 100 μM, 10 μM, 1 μM, 100 nM, 10 nM) or vehicle were added into the wells in triplicate (DMSO vehicle 0.1% and 1%). After 7 days, colonies were stained with 350 μL of crystal violet solution, incubated for 30 min at room temperature, then wells were washed in water and dried. At least the best 3 independent experiments out of 5 independent repeats were used to perform the statistical analysis of the results. Colonies were counted by GelCount Colony Counter (Oxford Optronix Ltd.) using the GelCount 1.1.8.0 software. Assay end points were normalised to 0% (DMSO only) and fitted to a semi‐log plot using at least n = 3 technical replicates (n = 6 for DMSO control and N = 3 independent replicates). The curve fit was performed using GraphPad Prism.
as §3

[2] = biological target: T1, Recombinant human Hsp90 alpha protein (Homo sapiens, UniProt P07900); assay: Transcreener ADP FP Hsp90 ATPase assay; type: biochemical; conditions: Recombinant human HSP90, 100 μM ATP; read-out: ATPase assay on rh-Hsp90 IC50
T1 construct: human full‐length protein, expressed in Escherichia coli; His tag (C); purchased Abcam ab80369; host or cells: Escherichia coli
Procedure: Transcreener ADP (cat. no. 3004‐1K) and ADP2 (cat. no. 3010‐1K) FP assay kits were obtained from Bellbrook Laboratories. Recombinant human Hsp90 alpha protein (active), human full‐length protein, expressed in Escherichia coli with > 90% purity and C‐terminus His tag, was purchased from Abcam (ab80369). All FP assays were carried out in black, 384‐well, low‐volume, polystyrene nonbinding microplates from Corning Life Sciences. All basic buffer components were obtained from Sigma‐Aldrich Chemical Co. 17‐AAG (Figure 1) was obtained from Abcam. Using the Transcreener ADP FP kit, the conditions for the recombinant human Hsp90 ATPase reaction were 50 mM HEPES (pH 7.4), 20 mM KCl, 2 mM EGTA, 4 mM MgCl2, and 0.01% Brij‐35 in a 10‐μL total assay volume. The final assay concentration of ATP was 100 μM for Hsp90. Due to the relatively low level of ATPase activity compared with other enzymes, the plate was incubated at 37°C and run over 1, 2 and 3 h time points. The reaction was stopped, and the ADP was detected by adding 10 μL of 50 mM HEPES (pH 7.4), 400 mM NaCl, 20 mM EDTA, 0.01% Brij35, 75 μg/mL anti‐ADP monoclonal antibody, and 4 nM ADP far red tracer. The plate was sealed, centrifuged at 600 g for 1 min, and left at room temperature for 1 h. FP readings for the Hsp90 ATPase Transcreener assays were performed on a Clariostar plate reader ([…]). A blank mP signal composed of protein, antibody, labelled ADP, but no ATP substrate gave similar mP values to those seen in the no‐protein controls. The upper limit of the assay window was defined by a no‐protein control, and the mP in the presence of heat shock protein was subtracted from this control to generate a change in polarisation (ΔmP), which was plotted on the activity graphs. Therefore, the data take into account the spontaneous hydrolysis of ATP. Each value is the mean of triplicate determinations with standard deviations (SD) shown. IC50 values were calculated using GraphPad Prism software with the nonlinear regression curve fitted to the log (inhibitor concentration) against the raw mP values on the linear portion of the standard curve.

| SMILES | viability at 24 h, 10 µM [1] | GI50 (HEK-293 cells) | GI50 (MDA-MB-231 cells; Homo sapiens, MDA-MB-231, 24 h) | viability at 10 µM (MDA-MB-231 cells; Homo sapiens, MDA-MB-231, 24 h) | IC50 (MCF-7 cells) | % Clonogenicity (MCF-7, 10 μM) (MCF-7 cells) | IC50 [2] | % Viability (MDA-MB-231, 10 μM) (MDA-MB-231 cells) | GI50 (MDA-MB-231 cells) |
| --- | --- | --- | --- | --- | --- | --- | --- | --- | --- |
| COc1ccc(C2NC(=O)NC(C)=C2C(=O)OCc2ccccc2)c(F)c1 (stereo not shown) [Compound 5a, Benzyl 4‐(2‐Fluoro‐4‐Methoxyphenyl)‐6‐Methyl‐2‐Oxo‐1,2,3,4‐Tetrahydropyrimidine‐5‐Carboxylate] | 90.6 ± 3.35% | 71.5 µM | 86.2 µM | 91.33 ± 0.64% | 5.03 µM | 71.87 ± 4.77% | 5.36 µM |  |  |
| COc1ccc(C2NC(=O)NC(C)=C2C(=O)OCc2ccc(OC)c(OC)c2)c(F)c1 (stereo not shown) [Compound 5b, 3,4‐Dimethoxybenzyl 4‐(2‐Fluoro‐4‐Methoxyphenyl)‐6‐Methyl‐2‐Oxo‐1,2,3,4‐Tetrahydropyrimidine‐5‐Carboxylate] | 99.9 ± 1.5% | 44.9 µM | 72.1 µM | 89.7 ± 1.37% | 0.68 µM | 71.39 ± 2.94% | 13.1 µM |  |  |
| COc1ccc(COC(=O)C2=C(C)NC(=O)NC2c2ccc(Cl)cc2)cc1OC (stereo not shown) [Compound 5c, 3,4‐Dimethoxybenzyl‐4‐(4‐Chlorophenyl)‐6‐Methyl‐2‐Oxo‐1,2,3,4‐Tetrahydropyrimidine‐5‐Carboxylate] | 99.4 ± 3.16% | 12.6 µM | 22.7 µM | < 80% | 2.46 µM | 64.29 ± 3.69% | 4.28 µM | 73.55 ± 3.50% |  |
| CC1=C(C(=O)OCc2ccccc2)C(c2ccc(OC(F)(F)F)cc2F)NC(=O)N1 (stereo not shown) [Compound 5f, Benzyl 4‐(2‐Fluoro‐4‐(Trifluoromethoxy)phenyl)‐6‐Methyl‐2‐Oxo‐1,2,3,4‐Tetrahydropyrimidine‐5‐Carboxylate] | 95.1 ± 3.82% | 16.4 µM | 98.9 µM | 85.7 ± 2.65% | 2.29 µM | 72.41 ± 3.21% | 13.7 µM |  |  |
| COc1ccc(COC(=O)C2=C(C)NC(=O)NC2c2cccc(Cl)c2)cc1OC (stereo not shown) [Compound 5g, 3,4‐Dimethoxybenzyl 4‐(3‐Chlorophenyl)‐6‐Methyl‐2‐Oxo‐1,2,3,4‐Tetrahydropyrimidine‐5‐Carboxylate] | 96.7 ± 3.77% | 39.1 µM | 19.3 µM | < 80% | 0.83 µM | 50.04 ± 2.3% | 32.6 µM | 72.16 ± 7.20% |  |
| COc1cccc(COC(=O)C2=C(C)NC(=O)NC2c2ccc(Cl)cc2)c1 (stereo not shown) [Compound 5h, 3‐Methoxybenzyl 4‐(4‐Chlorophenyl)‐6‐Methyl‐2‐Oxo‐1,2,3,4‐Tetrahydropyrimidine‐5‐Carboxylate] | 81 ± 2.36% | 12.3 µM | 23.7 µM | 88 ± 3.1% | 9.08 µM | 42.34 ± 4.80% | 6.47 µM |  |  |
| COc1ccc(COC(=O)C2=C(C)NC(=O)NC2c2ccc(Cl)cc2)cc1 (stereo not shown) [Compound 5i, 4‐Methoxybenzyl 4‐(4‐Chlorophenyl)‐6‐Methyl‐2‐Oxo‐1,2,3,4‐Tetrahydropyrimidine‐5‐Carboxylate] | 94.3 ± 2.95% | 98.5 µM | 40 µM | 83.26 ± 0.69% | 0.56 µM | 8.39% and 8.39 ± 2.84% | 9.59 µM |  | 40 µM |
| COc1ccc(COC(=O)C2=C(C)NC(=O)NC2c2ccccc2Cl)cc1OC (stereo not shown) [Compound 5j, 3,4‐Dimethoxybenzyl 4‐(2‐Chlorophenyl)‐6‐Methyl‐2‐Oxo‐1,2,3,4‐Tetrahydropyrimidine‐5‐Carboxylate] | 93 ± 2.59% | 58 µM | 65.7 µM | < 80% | 3.49 µM | 58.18 ± 4.42% | 32.5 µM | 76.50 ± 4.28% |  |
| COc1ccc(C2NC(=O)NC(C)=C2C(=O)OCc2ccc3c(c2)OCO3)cc1 (stereo not shown) [Compound 5k, Benzo[d] [1,3] Dioxol‐5‐ylmethyl 4‐(4‐Methoxyphenyl)‐6‐Methyl‐2‐Oxo‐1,2,3,4‐Tetrahydropyrimidine‐5‐Carboxylate] | 98.6 ± 1.31% | 63 µM | 77.2 µM | 98.7 ± 2.6% | 2.46 µM | 99.85 ± 3.27% | 20.2 µM |  |  |
| CC1=C(C(=O)OCc2ccccc2)C(c2ccc(F)cc2)NC(=O)N1 (stereo not shown) [Compound 5l, Benzyl 4‐(4‐Fluorophenyl)‐6‐Methyl‐2‐Oxo‐1,2,3,4‐Tetrahydropyrimidine‐5‐Carboxylate] | 98 ± 1.89% | 52.9 µM | 86.6 µM | 100 ± 2.96% | 0.89 µM | 82.62 ± 2.93% | 22.9 µM |  |  |
| CC1=C(C(=O)OCc2ccccc2)C(c2ccccc2F)NC(=O)N1 (stereo not shown) [Compound 5m, Benzyl 4‐(2‐Fluorophenyl)‐6‐Methyl‐2‐Oxo‐1,2,3,4‐Tetrahydropyrimidine‐5‐Carboxylate] | 97.7 ± 3.27% | 20.4 µM | 84.9 µM | 95.2 ± 3.72% | 15.7 µM | 99.95 ± 2.40% | 16.6 µM |  |  |
| CC1=C(C(=O)OCc2ccccc2)C(c2ccc(C)cc2F)NC(=O)N1 (stereo not shown) [Compound 5n, Benzyl 4‐(2‐Fluoro‐4‐Methylphenyl)‐6‐Methyl‐2‐Oxo‐1,2,3,4‐Tetrahydropyrimidine‐5‐Carboxylate] | 98.7 ± 2.49% | 39.6 µM | 86.7 µM | 97.3 ± 1.3% | 7.17 µM | 90.54 ± 0.81% | 74.6 µM |  |  |
